Data on 9 compounds can be found in paper PMC10885153, “Membrane Permeability in a Large Macrocyclic Peptide Driven by a Saddle-Shaped Conformation” (Journal of the American Chemical Society, 2024).

For orientation: Papp means the rate of passage across a membrane or cell layer, normalised by area and donor concentration. One may read the Papp A→B as the apparent permeability from the apical to the basolateral side of a cell layer. As a reminder, the kinetic solubility is the concentration staying in solution when a stock, usually in DMSO, is diluted into the medium.

For series [1] the following is noted: MDCK.
Description: (§1) We also tested the permeabilities of the pure compounds in a cell-based trans-well permeability assay using Mdr1 knockout Madin–Darby canine kidney (MDCK) cells which minimize the endogenous efflux activity of traditional MDCK cells.[54]
(§2) The gMDCKI cell line (overexpressed cell line of Madin -Darby Canine Kidney which acquired from the NIH)
(§3) maintained in DMEM medium supplemented with 1% pen -strep, 5 µg/mL Plasmocin, and 10% FBS under
(§4) standard culture conditions (37 °C, 95% humidity, and 5% CO2), were seeded (0.75 x 10^5 cells) on the HTS
(§5) Transwell-96 permeable support (Corning) to form a confluent monolayer for two days.
(§6) All experimental steps were fully automated on Hamilton Vantage. Compound stock solution (1 mM in
(§7) DMSO) was diluted (10 μM final in HBSS, pH 7.4) with Lucifer Yellow as leakage indicator (20 μM). After
(§8) washing with HBSS buffer, the solution of test compounds was added to the apical side of the monolayers.
(§9) The plate was incubated for 3 h at 37 °C. T0 samples (10 µL of the 10 µM compounds diluted solution with
(§10) LY) were transferred to a 96-well plate, and then 40 µL of HBSS was added. After 3 hours, 50 μL basolateral
(§11) samples in the receiving plate were transferred to a fresh 96-well plate and added 100 μL of IS solution
(§12) (Propranolol). LY were read by plate reader and the samples were analyzed by LC/MS/MS.
(§13) The apparent permeability coefficient (Papp) is calculated from the permeation rate and compound
concentration at t=0h and t=3h. Where:
(§14) dQ/dt: amount of product present in the basal (A-B) or apical (B-A) compartment as a function of time
A: area of transwell (cm2).
(§15) C0: initial concentration of product applied in the apical (A -B) or basal (B-A) compartment (nmol/ml).
Series [2] has as its system Mdr1 knockout Madin–Darby canine kidney (MDCK) cells.
Description: as §1, §2, §3, §4, §5, §6, §7, §8, §9, §10, §11, §12, §13
concentration at t=0h and t=3h. Where:
as §14
A: area of transwell (cm2).
as §15
Series [3] is described as follows: PAMPA, individually resynthesized pure compounds (primary protocol).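 Also: artificial membrane of 1% soy lecithin in dodecane on a filter plate, donor and acceptor buffer PBS pH 7.4 with 5% DMSO, incubated overnight at room temperature.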 For orientation: PAMPA measures passive passage across an artificial lipid membrane.
Description: (§16) assay was carried out with a 96-well donor plate with 0.45 μ hydrophobic Immobilon-P membrane supports
(§17) (Millipore MAIPNTR10) and a 96-well Teflon acceptor plate (Millipore MSSACCEPTOR). The PAMPA
protocol then proceeded as follows:
(§18) Donor well solutions were prepared to a volume of 1 000 µL with the analytes as a solution in 1X
(§19) PBS pH 7.4 and 5% DMSO. To a 3 mL Eppendorf tube was added 950 µL of 1X PBS pH 7.4, 40
Analyte – 10 µM per compound
(§20) sonicated (5 min) to ensure full dissolution of the lecithin. The donor membrane plate was turned
(§21) upside down and bottom of the membranes exposed. 5 µL of the 1% soy lecithin solution in
(§22) dodecane was then placed on the bottom of the membrane, allowing the drop to spread across the
(§23) full area of the membrane. Any membranes with visible damage were not used in the assay. The
(§24) membranes were allowed to equilibrate for 5 min before loading.
(§25) 3. Each well within the Teflon block acceptor plate that was to be used in the assay was then loaded
(§26) with 300 µL of 1X PBS pH 7.4 and 5% DMSO.
(§27) Working without break, 150 µL of each donor well solution was transferred from the to the 96-well
(§28) donor plate. Each mixture of interest was r un in quadruplicate, using a new well for each replicate.
(§29) As soon as the 96-well donor plate was finished being loaded, it was gently placed into the 96-well
(§30) Teflon acceptor plate, taking care not to trap any air bubbles beneath the membrane.
(§31) The donor/acceptor plates were covered gently with the lid to minimize evaporation and transferred
(§32) gently as a system to a sealed chamber and left to sit overnight at room temperature. The chamber
(§33) was kept from drying by placing a wet paper towel within to prevent evaporation.
(§34) After ~19-20 hours the donor plate was removed from the acceptor plate.
(§35) 50 µL of each well (donor and acceptor) were transferred to a 96 -well plate and diluted with 50 µL
(§36) of methanol prior to heat sealing and quantification by UPLC -MS.
The nature of series [4]: in vitro. The conditions noted are these: dog, pH 7.4.
Description: as §1, §2, §3, §4, §5, §6, §7, §8, §9, §10, §11, §12, §13
concentration at t=0h and t=3h. Where:
as §14
A: area of transwell (cm2).
as §15
For series [5] the following is noted: PAMPA.
Description: as §16, §17
protocol then proceeded as follows:
as §18, §19
Analyte – 10 µM per compound
as §20, §21, §22, §23, §24, §25, §26, §27, §28, §29, §30, §31, §32, §33, §34, §35, §36
Series [6] in a line: in vitro. Conditions: PAMPA.
Description: as §16, §17
protocol then proceeded as follows:
as §18, §19
Analyte – 10 µM per compound
as §20, §21, §22, §23, §24, §25, §26, §27, §28, §29, §30, §31, §32, §33, §34, §35, §36
For series [7] the following is noted: PAMPA, 10 µM, pH 7.4.
For series [8] the following is noted: 10 µM, pH 7.4.
Description: as §16, §17
protocol then proceeded as follows:
as §18, §19
Analyte – 10 µM per compound
as §20, §21, §22, §23, §24, §25, §26, §27, §28, §29, §30, §31, §32, §33, §34, §35, §36
Series [9] in a line: in vitro. The conditions noted are these: PAMPA, pH 7.4, Permeability (Papp) PAMPA (mixture).
On the set-up of series [10]: method as in Fouché et al. Conditions: ref Fouché et al.; cited from earlier work.
On the set-up of series [11]: method as in Fouché et al. Conditions: rat; ref Fouché et al.; cited from earlier work.
Setting [12] is: pH 7.4, Permeability (Papp) PAMPA (indiv.).
The mark [13] stands for this setting: pH 7.4, kinetic from dmso stock.
The mark [14] stands for this setting: pH 7.4, aqueous with cosolvent or surfactant or cyclodextrin, kinetic from dmso stock.

≈ marks a conversion by molar mass, not a printed value. Like-named read-outs stand apart in the source and are kept apart here. Positions of bridges follow the written chain, without caps; N, C: chain ends. Non-standard residues stand in square brackets, D forms with d. Residues, ends and D or L forms follow the SMILES beside them. NMeF = CN[C@@H](Cc1ccccc1)C(=O)O; Cha = N[C@@H](CC1CCCCC1)C(=O)O; NMeNva = CCC[C@H](NC)C(=O)O; NMeAbu = CC[C@H](NC)C(=O)O; NMeC = CN[C@@H](CS)C(=O)O; NMeA = CN[C@@H](C)C(=O)O; dAbu = CC[C@@H](N)C(=O)O; dNMeA = CN[C@H](C)C(=O)O; Nva = CCC[C@H](N)C(=O)O; Abu = CC[C@H](N)C(=O)O; Nleu = CC(C)CNCC(=O)O; NPrGly = CCCNCC(=O)O; NEtG = CCNCC(=O)O

Description for physchem: Kinetic Solubility PBS Protocol
4 µL of 10 mM compound in DMSO stock was added to 196 µL 1 X PBS pH 7.4 in a 96 -well microplate to
get a final concentration of 200 µM to shake for 24 hours at 1000 rpm. The sample was filtered sample
using a 96-Multiscreen HTS filter plate (Millipore MSSL BPC50) and a positive pressure manifold.

For the compound `CCOC(=O)[C@@H]1CSCC(=O)N[C@H](CC)C(=O)N(C)[C@@H](C)C(=O)N[C@@H](CC(C)C)C(=O)N(C)[C@H](C)C(=O)N(CC(C)C)CC(=O)N[C@H](CC(C)C)C(=O)N(C)[C@H](C)C(=O)N[C@@H](CC(C)C)C(=O)N1C` [A1, O=C(N(C)[C@H](C(OCC)=O)CSCC(N[C@@H](C(N(C)[C@@H](C)C(N[C@@H](CC(C)C)C(N(C)[C@H](C)C(N(CC(C)C)CC(N[C@@H]1CC(C)C)=O)=O)=O)=O)=O)CC)=O)[C@H](CC(C)C)NC([C@@H](C)N(C)C1=O)=O] ({CH2CO}-[dAbu][NMeA]L[dNMeA][Nleu][dL][dNMeA]L[NMeC]-OEt; thioether N-9), the Papp in series [1] is 9 ×10⁻⁶ cm/s; in series [3] (PAMPA Papp, Figure 5), 10 ×10⁻⁶ cm/s; in [3] (Papp), ~10 ×10⁻⁶ cm/s. Besides, the “MDCK Pe_avg” value in [2] (resynthesized stereoscan compounds, 10 μM, HBSS pH 7.4, 3 h) is 9.02 ×10⁻⁶ cm/s.
With `CCOC(=O)[C@@H]1CSCC(=O)N[C@@H](CC)C(=O)N(C)[C@@H](C)C(=O)N[C@@H](CC(C)C)C(=O)N(C)[C@H](C)C(=O)N(CC(C)C)CC(=O)N[C@H](CC(C)C)C(=O)N(C)[C@H](C)C(=O)N[C@@H](CC(C)C)C(=O)N1C` [A1-1L, O=C(N(C)[C@H](C(OCC)=O)CSCC(N[C@H](C(N(C)[C@@H](C)C(N[C@@H](CC(C)C)C(N(C)[C@H](C)C(N(CC(C)C)CC(N[C@@H]1CC(C)C)=O)=O)=O)=O)=O)CC)=O)[C@H](CC(C)C)NC([C@@H](C)N(C)C1=O)=O] ({CH2CO}-[Abu][NMeA]L[dNMeA][Nleu][dL][dNMeA]L[NMeC]-OEt; thioether N-9), the Papp in series [1] was determined as 0.9 ×10⁻⁶ cm/s. The Papp A→B in the series “in vitro [4]” was found to be 0.93 ×10⁻⁶ cm/s.
`CCOC(=O)[C@@H]1CSCC(=O)N[C@H](CC)C(=O)N(C)[C@@H](C)C(=O)N[C@@H](CC(C)C)C(=O)N2CCC[C@@H]2C(=O)N(CC(C)C)CC(=O)N[C@H](CC(C)C)C(=O)N(C)[C@H](C)C(=O)N[C@@H](CC(C)C)C(=O)N1C` [A1-4dP, O=C(N(C)[C@H](C(OCC)=O)CSCC(N[C@@H](C(N(C)[C@@H](C)C(N[C@@H](CC(C)C)C(N1[C@H](CCC1)C(N(CC(C)C)CC(N[C@@H]2CC(C)C)=O)=O)=O)=O)=O)CC)=O)[C@H](CC(C)C)NC([C@@H](C)N(C)C2=O)=O] ({CH2CO}-[dAbu][NMeA]L[dP][Nleu][dL][dNMeA]L[NMeC]-OEt; thioether N-9) returned a Papp in series [5] of 0.3 ×10⁻⁶ cm/s. Moreover, the “MDCK Papp” value in series [2] (MDCK) is reported as 0.0 × 10^–6 cm/s. In the series “in vitro [6]” (pH 7.4, PAMPA Pe_avg), this compound returned a Papp at 10 µM of 0.398 ×10⁻⁶ cm/s. In addition, the Papp A→B at 3 h, 10 µM in the series “in vitro [4]” turned out to be 0.0246 ×10⁻⁶ cm/s.
`CCOC(=O)[C@@H]1CSCC(=O)N[C@H](CC)C(=O)N(C)[C@@H](C)C(=O)N[C@@H](CC(C)C)C(=O)N(C)[C@H](C)C(=O)N(CC(C)C)CC(=O)N[C@@H](CC(C)C)C(=O)N(C)[C@H](C)C(=O)N[C@@H](CC(C)C)C(=O)N1C` [A1-6L, O=C(N(C)[C@H](C(OCC)=O)CSCC(N[C@@H](C(N(C)[C@@H](C)C(N[C@@H](CC(C)C)C(N(C)[C@H](C)C(N(CC(C)C)CC(N[C@H]1CC(C)C)=O)=O)=O)=O)=O)CC)=O)[C@H](CC(C)C)NC([C@@H](C)N(C)C1=O)=O] ({CH2CO}-[dAbu][NMeA]L[dNMeA][Nleu]L[dNMeA]L[NMeC]-OEt; thioether N-9) registered a Papp in series [1] of 0.9 ×10⁻⁶ cm/s. This compound had an apical-to-basolateral permeability (Papp A→B) in “in vitro [4]” of 0.86 ×10⁻⁶ cm/s.
Consider `CCOC(=O)[C@@H]1CSCC(=O)N[C@@H](CC(C)C)C(=O)N(C)[C@@H](C)C(=O)N[C@@H](CC(C)C)C(=O)N2CCC[C@@H]2C(=O)N(CC)CC(=O)N[C@@H](CC)C(=O)N(C)[C@@H](C)C(=O)N[C@@H](CC(C)C)C(=O)N1C` [LA02, O=C(N(C)[C@H](C(OCC)=O)CSCC(N[C@H](C(N(C)[C@@H](C)C(N[C@@H](CC(C)C)C(N1[C@H](CCC1)C(N(CC)CC(N[C@H]2CC)=O)=O)=O)=O)=O)CC(C)C)=O)[C@H](CC(C)C)NC([C@H](C)N(C)C2=O)=O] ({CH2CO}-L[NMeA]L[dP][NEtG][Abu][NMeA]L[NMeC]-OEt; thioether N-9), for which, in [7], the “%R_avg” value was found to be 17.1%. For the same compound, the “PAMPA Papp_avg” value in [8] was found to be 4.1 ×10⁻⁶ cm/s. In addition, the Papp at 10 µM in “in vitro [6]” (setting [12]) came to 4.1 ×10⁻⁶ cm/s. In the series “in vitro [4]” (MDCK), this compound returned a Papp A→B at 3 h, 10 µM of 4.5 ×10⁻⁶ cm/s and a Papp at 3 h, 10 µM of 4.5 ×10⁻⁶ cm/s. In addition, the kinetic solubility at 24 h in “physchem” (setting [13]) was 200 µM (≈ 196 µg/mL).
Turning to `CCCN1CC(=O)N[C@@H](CC)C(=O)N(C)[C@@H](C)C(=O)N[C@@H](CC(C)C)C(=O)N(C)[C@H](C(=O)OCC)CSCC(=O)N[C@@H](CC(C)C)C(=O)N(C)[C@@H](C)C(=O)N[C@@H](CC(C)C)C(=O)N2CCC[C@@H]2C1=O` [LA04, O=C(N(C)[C@H](C(OCC)=O)CSCC(N[C@H](C(N(C)[C@@H](C)C(N[C@@H](CC(C)C)C(N1[C@H](CCC1)C(N(CCC)CC(N[C@H]2CC)=O)=O)=O)=O)=O)CC(C)C)=O)[C@H](CC(C)C)NC([C@H](C)N(C)C2=O)=O] ({CH2CO}-L[NMeA]L[dP][NPrGly][Abu][NMeA]L[NMeC]-OEt; thioether N-9), the “%R_avg” value in [7] is 8.2%. In addition, the “PAMPA Papp_avg” value in series [8] was 3.86 ×10⁻⁶ cm/s. Further, the Papp at 10 µM in “in vitro [9]” was 4 ×10⁻⁶ cm/s; in the series “in vitro [6]” (setting [12]) it was 3.9 ×10⁻⁶ cm/s. In addition, the Papp A→B at 3 h, 10 µM in the series “in vitro [4]” (MDCK) was determined as 4 ×10⁻⁶ cm/s. In “physchem” (setting [13]), the kinetic solubility at 24 h came to 200 µM (≈ 199 µg/mL).
With `CCC[C@H]1C(=O)N[C@@H](CC)C(=O)N(C)[C@@H](C)C(=O)N[C@@H](CC(C)C)C(=O)N(C)[C@H](C(=O)OCC)CSCC(=O)N[C@@H](CC(C)C)C(=O)N(C)[C@@H](C)C(=O)N[C@@H](CC(C)C)C(=O)N2CCC[C@@H]2C(=O)N1C` [LC04, O=C(N(C)[C@H](C(OCC)=O)CSCC(N[C@H](C(N(C)[C@@H](C)C(N[C@@H](CC(C)C)C(N1[C@H](CCC1)C(N(C)[C@@H](CCC)C(N[C@H]2CC)=O)=O)=O)=O)=O)CC(C)C)=O)[C@H](CC(C)C)NC([C@H](C)N(C)C2=O)=O] ({CH2CO}-L[NMeA]L[dP][NMeNva][Abu][NMeA]L[NMeC]-OEt; thioether N-9), the “%R_avg” value in series [7] amounted to 11.2%. Further, in series [8], the “PAMPA Papp_avg” value came out at 3.3 ×10⁻⁶ cm/s. In “in vitro [6]” (setting [12]), this compound yielded an apparent permeability coefficient (Papp) at 10 µM of 3.3 ×10⁻⁶ cm/s. The same compound showed a Papp A→B at 3 h, 10 µM in “in vitro [4]” (MDCK) of 6.5 ×10⁻⁶ cm/s. The kinetic solubility at 24 h in “physchem” (setting [14]) worked out at 183 µM (≈ 185 µg/mL).
With `CCC[C@@H]1NC(=O)[C@H](C)N(C)C(=O)[C@H](CC(C)C)NC(=O)CSC[C@@H](C(=O)OCC)N(C)C(=O)[C@H](CC(C)C)NC(=O)[C@H](C)N(C)C(=O)[C@H](CC2CCCCC2)NC(=O)[C@H](CC)N(C)C(=O)[C@H]2CCCN2C1=O` [LC09, O=C(N(C)[C@H](C(OCC)=O)CSCC(N[C@H](C(N(C)[C@@H](C)C(N[C@@H](CCC)C(N1[C@H](CCC1)C(N(C)[C@@H](CC)C(N[C@H]2CC3CCCCC3)=O)=O)=O)=O)=O)CC(C)C)=O)[C@H](CC(C)C)NC([C@H](C)N(C)C2=O)=O] ({CH2CO}-L[NMeA][Nva][dP][NMeAbu][Cha][NMeA]L[NMeC]-OEt; thioether N-9), the “%R_avg” value in series [7] was 6.1%. For the same compound, the “MDCK Papp_avg” value in series [2] (dog, MDCK, 3 h, 10 µM, pH 7.4) is 1.8 ×10⁻⁶ cm/s. Moreover, the Papp at 10 µM in “in vitro [6]” (setting [12]) came out at 0.3 ×10⁻⁶ cm/s. For the same compound, in “in vitro [4]” (MDCK), the Papp A→B at 3 h, 10 µM amounted to 1.8 ×10⁻⁶ cm/s. The same compound displayed a solubility (kinetic) at 24 h in “physchem” (setting [14]) of 10 µM (≈ 10.5 µg/mL).
Turning to `CC(C)C[C@@H]1NC(=O)[C@H](Cc2ccccc2)N(C)C(=O)[C@H]2CCCN2C(=O)[C@H](CC(C)C)NC(=O)[C@H](C)N(C)C(=O)[C@H](CC(C)C)NC(=O)[C@H](Cc2ccccc2)N(C)C(=O)[C@H]2CCCN2C(=O)[C@H](CC(C)C)NC(=O)[C@H](C)N(C)C1=O` [compound 1] (cyclo(L[NMeA]L[dP][NMeF]L[NMeA]L[dP][NMeF])), the Papp amounted to 5 ×10⁻⁶ cm/s in series [5] and 11.4 ×10⁻⁶ cm/s in series [1]. For the same compound, the “PAMPA Papp” value in [10] is listed as 5.01 × 10^–6 cm/s. Further, the oral bioavailability in series [11] is 46 %F.
